This is an account of results in patent US11246846B2, “Trisodium citrate compositions having enhanced uptake across digestive mucosa” (priority 2017, dated 2022).

The structures appear in SMILES notation. Read-outs that look alike come from different tables or passages of the source.

The test system of series [1] is Caco2 monolayer. Description: Creatine and leucine diffusion across Caco-2 monolayer, sodium/citrate sources (Example II). It is filed as in vitro ADME, human. The conditions noted are these: added at 10 mM to creatine monohydrate and leucine.
Protocol: More particularly, after 21 days of growth in Corning® Transwell 6 well plat, trans-epithelial electrical resistance (TEER) was measured across the Caco2 monolayer using an EVOM II TEER meter with an Endohm 24SNAP measuring chambers. Cells were considered ready for use if the average TEER value reached approximately 900 Ohm*cm2. The Caco2 monolayer was then equilibrated in DPBS at 37° C. for 15 minutes. The apical solution was then removed and replaced with the various solutions to be tested. Basolateral chambers were sampled at 15, 30, 45, 60, 75 and 90 minutes and replaced with fresh DPBS. All samples were filtered at 0.45 μm and examined by HPLC. The HPLC analysis utilized a 250 mm×4.6 mm, 5 μm Thermo Scientific BDS Hypersil base deactivated C18 column. The mobile phase consisted of 0.5 M ammonium sulphate at a flow rate of 1.5 m/min. Sample detection was performed at 206 nm using a photodiode array. For this Example II, four formulations were studied, with chemicals present at 10 mM:
For the experiments in this study samples from each formulation were monitored apical to basolateral through a Caco-2 membrane registering an average TEER of 1650 Ohm*cm^2.
Series [2] deals with Caco2 monolayer. Description: Valine permeability across Caco2 monolayer with/without TSC (Example X). The class given is in vitro ADME, human. The conditions noted are these: for valine diffusion across Caco2: 10 mM in DPBS. The method, then: Undyed isotonic DPBS was used as receiver and donor buffer rather than HBSS due to interference with HBSS components and Valine in the HPLC. In brief 3 mM 10 mM Valine in DPBS alone or with 10 mM trisodium citrate was added to the donor chamber of each of 3 side by side diffusion cells with a confluent Caco 2 Monolayer between (TEER˜900 Ohm*cm2). […] Data is summarized below in Table X and graphically illustrated in FIG. 17.
(Passage across Caco-2 layers is used to estimate intestinal permeability.)

Series [3] concerns Caco2 monolayer. The conditions noted are these: for glutathione diffusion across Caco2: human, 10 mM. As to the method:
Again, undyed isotonic DPBS as receiver and donor buffer rather than HBSS was used due to interference with HBSS components in the HPLC. […] Samples were taken at 15 minute intervals for 90 minutes and replaced with fresh isotonic DPBS. Samples were taken from donor chamber at time 0 and at 90 minutes.

In another series the test system is Caco 2 Monolayer. Description: L-Arginine and L-Citrulline diffusion across Caco2 monolayer with/without TSC (Example III). The conditions noted are these: for citrulline diffusion across Caco2: 10 mM in DPBS; for arginine diffusion across Caco2: human, 10 mM. It is filed as in vitro ADME, human. The method, then:
Thereafter, further diffusion studies were undertaken using a Caco-2 cellular model similar to that described in connection with Example II above. Four formulations were studied, with chemicals present at 10 mM: […]
For these experiments undyed isotonic DPBS was used as the receiver and donor buffer rather than HBSS due to interference with HBSS components in the HPLC. […] Below are the results of these studies.

Series [4] relates to Caco2 monolayer. Description: L-Citrulline and L-Leucine permeability through Caco2 monolayer with/without TSC (Example V). The class given is in vitro ADME, human. The conditions noted are these: for citrulline diffusion across Caco2: 10 mM each in DPBS. As to the method: Again, undyed isotonic DPBS was used as receiver and donor buffer rather than HBSS due to interference with HBSS components in the HPLC. […] Samples were taken at 15 minute intervals for 90 minutes and replaced with fresh isotonic DPBS. Samples were taken from donor chamber at time 0 and at 90 minutes.

Series [5] relates to Caco2 monolayer. Put plainly: Iso-leucine permeability through Caco2 monolayer with/without TSC (Example IX). It is filed as in vitro ADME, human. The following applies: for iso-leucine diffusion across Caco2: 10 mM in DPBS. As to the method:
Undyed isotonic DPBS was used as receiver and donor buffer rather than HBSS due to interference with HBSS components and Valine in the HPLC. In brief 3 mM 10 mM Isoleucine or Valine in DPBS alone or with 10 mM trisodium citrate was added to the donor chamber of each of 3 side by side diffusion cells with a confluent Caco 2 Monolayer between (TEER˜900 Ohm*cm2). […] Below are the results of this study in table form, which are graphically illustrated in FIG. 16.

In series [6] the test system is Caco2 monolayer. Put plainly: Sarcosine and L-Leucine permeability through Caco2 monolayer with/without TSC (Example VI). It is filed as in vitro ADME, human. The following applies: for sarcosine diffusion across Caco2: 10 mM each in DPBS, estimation by subtraction. The text has this: On analysis it was discovered that a peak in the receiver side samples which had not interfered with previous samples eluted at the same time as the Sarcosine. The results were adjusted by averaging this peak from time points in previous studies and accordingly, the results represent an estimation by subtraction.

The subject of series [7] is Caco2 monolayer. The class given is in vitro ADME, human. The conditions noted are these: for arginine diffusion across Caco2: human, 10 mM. An excerpt: In further experiments were undertaken using a Caco-2 cellular model similar to that described in connection with Example II above. […] For these experiments undyed isotonic DPBS was used as receiver and donor buffer rather than HBSS due to interference with HBSS components in the HPLC. […] The results of these studies in graphical form are illustrated in FIGS. 6 and 7.

Another series concerns Caco-2 monolayer. Put plainly: Leucine permeation across Caco-2 model intestinal barrier (Example I). It is filed as in vitro ADME, human. An excerpt:
Initially, in order to make a meaningful evaluation of sodium transport of branched-chain amino acids across eukaryotic mucosal cells of the human digestive tract, the inventors elected to test leucine transport using the Caco-2 monolayer model similar to that described by Dash, et al. in “Evaluation of Creatine Transport Using Caco-2 Monolayers” id. The tests were undertaken using a Caco-2 cells so as to more closely approximate transport of creatine and branched-chain amino acids across mucosal cell membranes in vivo than might be reflected in other utilizing non-human cell sources or non-mucosa cell sources. In the permeation tests illustrated herein, simulated gastric and intestinal buffers were made with 0.2 normal (N) NaOH, made by mixing 1 g NaOH as needed with 125 mL deionized water. To simulate intestinal fluid without enzymes, 6.8 g monobasic potassium phosphate were mixed in 77 mL 0.2 N sodium hydroxide, and pH adjusted to 6.8±0.1 using NaOH or HCl, as needed. Thereafter, the solution was diluted to 1 L with deionized water, with a final pH of about 6.8±0.1. To simulate gastric fluid without enzymes, 2.0 g sodium chloride was added to 7.0 mL concentrated HCl, and then diluted to 1 L with deionized water. The pH was approximately 1.2
A repetition in a series of three repetitions was then undertaken to examined the changes in permeation in the presence of a different form of sodium as compared to leucine alone in Hank's Balanced salt solution across a Caco-2 model intestinal barrier (TEER≥1000 ohm*cm2). […] Leucine permeation across the Caco-2 monolayer was measured at 15, 30, 45, 60, 75 and 90 minutes after test initiation in milligrams of leucine per centimeter2 (mg/cm2). Data is summarized in Table I below and illustrated in FIG. 1.

For the compound `[Cl-].[Na+]` [sodium chloride], in the series on Caco2 monolayer [1], the “effect on leucine permeability” value is “did produce an effect” and the “effect on permeability of creatine monohydrate” value is listed as “enhanced”.
`CC(C)[C@H](N)C(=O)O` [Valine alone, Valine]: the “valine diffusion across Caco2” value in the series with Caco2 monolayer [2] (15 min) is listed as 1.388 μM/cm^2; in the series with Caco2 monolayer [2] (30 min) it was 1.431 μM/cm^2; in the series with Caco2 monolayer [2] (45 min), 1.537 μM/cm^2; in the series on Caco2 monolayer [2] (60 min), 1.682 μM/cm^2; in the series with Caco2 monolayer [2] (75 min), 1.841 μM/cm^2; with Caco2 monolayer [2] (90 min), 2.081 μM/cm^2. Further, the “permeability shift in the presence of trisodium citrate” value with Caco2 monolayer [2] (compared to iso-leucine and leucine) is “significantly greater permeability shift and overall higher permeability”.
Turning to `N[C@@H](CCC(=O)N[C@@H](CS)C(=O)NCC(=O)O)C(=O)O` [Glutathione alone, Glutathione], in the series on Caco2 monolayer [3] (Caco-2), the “Glutathione permeation in the presence of trisodium citrate” value is given as “significantly increased”. Besides, the “glutathione diffusion across Caco2” value with Caco2 monolayer [3] (Caco-2, 15 min) is recorded as 0.177 μM/cm^2; with Caco2 monolayer [3] (Caco-2, 30 min), 0.467 μM/cm^2; in the series with Caco2 monolayer [3] (Caco-2, 45 min), 0.731 μM/cm^2; with Caco2 monolayer [3] (Caco-2, 60 min), 0.977 μM/cm^2; in the series with Caco2 monolayer [3] (Caco-2, 75 min), 1.227 μM/cm^2; in the series on Caco2 monolayer [3] (Caco-2, 90 min), 1.456 μM/cm^2.
`NC(=O)NCCC[C@H](N)C(=O)O` [L-Citrulline alone, L-Citrulline]: the “L-Citrulline change in permeability in the presence of TSC” value in the series on Caco 2 Monolayer (10 mM TSC) was “did not show any significant change”. Besides, the “citrulline diffusion across Caco2” value came out at 2.281 μM/cm^2 in the series on Caco 2 Monolayer (15 min); 1.428 μM/cm^2 in the series on Caco 2 Monolayer (30 min); 1.415 μM/cm^2 with Caco 2 Monolayer (45 min); 2.191 μM/cm^2 with Caco 2 Monolayer (60 min); 2.457 μM/cm^2 in the series on Caco 2 Monolayer (75 min); 2.893 μM/cm^2 with Caco 2 Monolayer (90 min). For the same compound, the “citrulline diffusion across Caco2” value in the series with Caco2 monolayer [4] (15 min) is listed as 0.846 μM/cm^2; in the series with Caco2 monolayer [4] (30 min), 1.174 μM/cm^2; with Caco2 monolayer [4] (45 min), 1.906 μM/cm^2; with Caco2 monolayer [4] (60 min) it was 2.381 μM/cm^2; with Caco2 monolayer [4] (75 min), 2.699 μM/cm^2; in the series on Caco2 monolayer [4] (90 min), 3.300 μM/cm^2. Further, the “effect on L-Citrulline permeability by TSC or L-Leucine” value in the series on Caco2 monolayer [4] is “no significant effect”.
`CC[C@H](C)[C@H](N)C(=O)O` [Iso-leucine alone, iso-leucine]: the “permeability shift as a result of the addition of trisodium citrate” value in the series on Caco2 monolayer [5] was “substantially similar permeability shift and overall permeability increase to that exhibited by leucine”. For the same compound, the “iso-leucine diffusion across Caco2” value came out at 0.271 μM/cm^2 with Caco2 monolayer [5] (15 min); 0.614 μM/cm^2 in the series with Caco2 monolayer [5] (30 min); 0.978 μM/cm^2 with Caco2 monolayer [5] (45 min); 1.333 μM/cm^2 with Caco2 monolayer [5] (60 min); 1.748 μM/cm^2 in the series with Caco2 monolayer [5] (75 min); 2.078 μM/cm^2 in the series on Caco2 monolayer [5] (90 min).
With `CNCC(=O)O` [Sarcosine alone, Sarcosine], the “Sarcosine permeability in the presence of TSC” value in the series on Caco2 monolayer [6] is “enhanced”. Further, the “sarcosine diffusion across Caco2” value is recorded as 0.496 μM/cm^2 in the series with Caco2 monolayer [6] (15 min); 0.405 μM/cm^2 in the series on Caco2 monolayer [6] (30 min); 0.974 μM/cm^2 in the series on Caco2 monolayer [6] (45 min); 1.423 μM/cm^2 in the series on Caco2 monolayer [6] (60 min); 2.102 μM/cm^2 with Caco2 monolayer [6] (75 min); 1.801 μM/cm^2 with Caco2 monolayer [6] (90 min).
As to `N=C(N)NCCC[C@H](N)C(=O)O` [L-Arginine alone, L-Arginine], the “arginine diffusion across Caco2” value in the series on Caco 2 Monolayer (Caco-2, 15 min) worked out at 0.988 μM/cm^2; with Caco 2 Monolayer (Caco-2, 30 min), 1.453 μM/cm^2; in the series on Caco 2 Monolayer (Caco-2, 45 min) it was 2.033 μM/cm^2; in the series with Caco 2 Monolayer (Caco-2, 60 min), 2.578 μM/cm^2; in the series with Caco 2 Monolayer (Caco-2, 75 min) it was 3.005 μM/cm^2; in the series on Caco 2 Monolayer (Caco-2, 90 min), 3.448 μM/cm^2. Further, the “arginine diffusion across Caco2” value with Caco2 monolayer [7] (Caco-2, 15 min) is listed as 1.007 μM/cm^2; with Caco2 monolayer [7] (Caco-2, 30 min), 1.511 μM/cm^2; with Caco2 monolayer [7] (Caco-2, 45 min), 1.999 μM/cm^2; in the series on Caco2 monolayer [7] (Caco-2, 60 min) it was 2.432 μM/cm^2; in the series with Caco2 monolayer [7] (Caco-2, 75 min) it was 2.982 μM/cm^2; in the series with Caco2 monolayer [7] (Caco-2, 90 min), 3.237 μM/cm^2. Moreover, the “L-Arginine permeability in the presence of trisodium citrate” value with Caco2 monolayer [7] (Caco-2) is “enhanced”.
On to `O=C1O[C@H]([C@@H](O)CO)C([O-])=C1O.[Na+]` [sodium ascorbate], for which the “permeation of leucine in the presence of the sodium source” value in the series on Caco-2 monolayer (compared to leucine alone / sodium ascorbate) is reported as “slight increase”.
Turning to `CC(C)C[C@H](N)C(=O)O` [Leucine], the “Leucine permeation across Caco-2 monolayer” value with Caco-2 monolayer (human, Caco-2, 15 min) is recorded as 0.036 mg/cm2; with Caco-2 monolayer (human, Caco-2, 30 min), 0.052 mg/cm2; with Caco-2 monolayer (human, Caco-2, 45 min), 0.078 mg/cm2; in the series with Caco-2 monolayer (human, Caco-2, 60 min), 0.106 mg/cm2; in the series with Caco-2 monolayer (human, Caco-2, 75 min), 0.128 mg/cm2; in the series on Caco-2 monolayer (human, Caco-2, 90 min), 0.151 mg/cm2. For the same compound, the “Baseline adj for Leucine w/o Na” value in the series with Caco-2 monolayer (human, Caco-2, 90 min) amounted to 0.00 mg/cm2. In addition, in the series with Caco2 monolayer [7] (Caco-2), the “L-Leucine permeability in the presence of trisodium citrate” value is reported as “enhanced”. The “L-Leucine permeability in the presence of TSC” value in the series with Caco2 monolayer [4] (with L-Citrulline) and in the series with Caco2 monolayer [6] (in the presence of sarcosine) was “enhanced” in each case. In addition, the “effect on the permeability of glutathione” value in the series with Caco2 monolayer [3] (Caco-2) was “no noticeable effect”. Besides, in the series with Caco2 monolayer [3] (Caco-2), the “permeability of Leucine in the presence of trisodium citrate” value is reported as “enhanced”.
